We go through 23 compounds from patent US7241795B2, “Synthesis and antimicrobial activity of novel dicationic “reversed amidines”” (The University of North Carolina at Chapel Hill, priority 2000, dated 2007).

Values after ≈ are worked out from the molar mass of the structure shown. Counter-ions that a name gives are not always drawn.

In one data set the test system is Candida albicans. Put plainly: Antifungal broth macrodilution susceptibility testing (MIC/MFC), yeast. In kind it is cell-based. The conditions noted are these: for MIC / MFC: Candida albicans; for MIC: read-out: C. albicans MIC; for MFC: read-out: C. albicans MFC.
The test system of the next data set is M. tuberculosis H37Rv. Put plainly: Microplate Alamar Blue Assay (MABA) in BACTEC 12B medium. In kind it is cell-based, Mycobacterium tuberculosis. The conditions noted are these: for MIC / inhibition at 6.25 µg/mL: Mycobacterium tuberculosis, H37RV; for MIC: read-out: MTb MIC; for inhibition at 6.25 µg/mL: % Inhibition at 6.25 μg/ml, read-out: MTb % Inh.
For the next data set, the system named is poly dA•dT. The data set can be described thus: DNA thermal melting (ΔTm). In kind it is binding.
The next data set relates to d(CGCGAATTCGCG)2. The data set can be described thus: DNA thermal melting (ΔTm). The settings on record: oligo = d(CGCGAATTCGCG)2. The data set is classed as binding.
The next data set relates to Aspergillus fumigatus. The data set can be described thus: Antifungal broth macrodilution susceptibility testing (MIC/MFC), mold. The settings on record: Aspergillus fumigatus, strain 168.95; for MFC: read-out: Aspergillus fumigatus MFC; for MIC: read-out: Aspergillus fumigatus MIC. The data set is classed as cell-based.
The mark [1] stands for this setting: reference strain C. albicans A39.
Where [2] appears, read: lowest concentration effecting ≧90% reduction of fluorescence.

By MIC is commonly meant the lowest concentration found to suppress growth. In general, melting point refers to the temperature of the solid-liquid transition. With `Cc1ccc(C(=N)Nc2ccc(-c3ccc(-c4ccc(NC(=N)c5ccc(C)cc5)cc4)o3)cc2)cc1.Cl.Cl` [Compound 6c, 2,5-Bis [4-[(4-methylbenzimidoyl)amino]phenyl]furan Dihydrochloride], the melting point was 348 to 350.5 °C. For the same compound, the MIC with Candida albicans (setting [1]) was greater than 100 µg/mL. For the same compound, in the data set with M. tuberculosis H37Rv (setting [2]), the MIC was no more than 6.25 µg/mL. The “DNA Affinities ΔTm (AT)” value with poly dA•dT was greater than 28. Further, the “DNA Affinities ΔTm (oligo)” value with d(CGCGAATTCGCG)2 was determined as 15.4.
For the compound `OC(Cn1cncn1)(Cn1cncn1)c1ccc(F)cc1F` [Fluconazole, reference compound], in the data set with Candida albicans, the “activity against C. albicans, in words” value is recorded as “fungistatic”.
The term MFC denotes the lowest tested concentration that kills the fungus rather than only halting it. In the case of `Cl.Cl.N=C(N)Nc1ccc(-c2ccc(-c3ccc(NC(=N)N)cc3C(F)(F)F)o2)c(C(F)(F)F)c1` [Compound 5e, 2,5-Bis (4-guanidino-2-trifluoromethylphenyl) furan dihydrochloride], the MFC in the data set with Aspergillus fumigatus came to 100 µg/mL; in the data set on Candida albicans (setting [1]), 10 µg/mL. Besides, the MIC was 100 µg/mL in the data set with Aspergillus fumigatus, 10 µg/mL with Candida albicans (setting [1]) and 8 µg/mL with M. tuberculosis H37Rv (setting [2]). In the data set on poly dA•dT, the “DNA Affinities ΔTm (AT)” value worked out at 5.9.
Compound `Cc1cc(N=Nc2ccc3ccccc3n2)ccc1-c1ccc(-c2ccc(N=Nc3ccc4ccccc4n3)cc2C)o1` (as salt: hydrochloride) [Compound 6i, 2,5-Bis[2-methyl-4-(2-quinolylimino)aminophenyl]furan] gave a melting point of 168 to 169 °C.
For `Cc1cc(N=Nc2ccccn2)cc(C)c1-c1ccc(-c2c(C)cc(N=Nc3ccccn3)cc2C)o1` [Compound 6m, 2,5-Bis[2,6-dimethyl-4-(2-pyridylimino)aminophenyl]furan], in the data set with Aspergillus fumigatus, the MFC was greater than 100 µg/mL and the MIC worked out at 10 µg/mL (≈ 20.6 µM). Moreover, in the data set on Candida albicans (setting [1]), the MFC was greater than 100 µg/mL and the MIC was 10 µg/mL (≈ 20.6 µM). The “DNA Affinities ΔTm (AT)” value in the data set on poly dA•dT was 5.7. For the same compound, the “DNA Affinities ΔTm (oligo)” value in the data set with d(CGCGAATTCGCG)2 worked out at 1.2.
For the compound `c1cc(-c2ccc(-c3ccc(N=NC4CCCCC4)cc3)o2)ccc1N=NC1CCCCC1` [Compound 6d, 2,5-Bis[4-(cyclohexylimino)aminophenyl]furan], the MFC in the data set on Aspergillus fumigatus was greater than 100 µg/mL. For the same compound, the MIC in the data set on Aspergillus fumigatus is 100 µg/mL (≈ 227 µM); with Candida albicans (setting [1]), greater than 100 µg/mL; in the data set with M. tuberculosis H37Rv (setting [2]), no more than 6.25 µg/mL. The “activity against M. tuberculosis, in words” value in the data set with M. tuberculosis H37Rv is recorded as “some activity”. The “DNA Affinities ΔTm (AT)” value in the data set with poly dA•dT was determined as 26.7. The “DNA Affinities ΔTm (oligo)” value in the data set on d(CGCGAATTCGCG)2 came out at 12.8.
For `N=C(N)c1ccc(-c2ccc(-c3ccc(C(=N)N)cc3)o2)cc1` [2,5-bis [4-amidinophenyl]furan, reference compound], the “DNA Affinities ΔTm (AT)” value with poly dA•dT was determined as 25. For the same compound, the “DNA Affinities ΔTm (oligo)” value in the data set with d(CGCGAATTCGCG)2 stood at 11.7.
Take `Br.Br.CC(=N)Nc1ccc(-c2ccc(-c3ccc(NC(C)=N)cc3)o2)cc1` [Compound 6e, 2,5-Bis[4-(acetimidoyl)aminophenyl]furan Dihydrobromide]: the melting point was 307 to 309.5 °C (dec.). Besides, in the data set with Aspergillus fumigatus, the MFC was greater than 100 µg/mL and the MIC is 100 µg/mL. Also, the MIC in the data set with Candida albicans (setting [1]) is greater than 100 µg/mL. Moreover, in the data set on M. tuberculosis H37Rv, the inhibition at 6.25 µg/mL was determined as 0%. Moreover, the “DNA Affinities ΔTm (AT)” value in the data set with poly dA•dT is 15.9. The “DNA Affinities ΔTm (oligo)” value with d(CGCGAATTCGCG)2 was found to be 6.0.
For `Cc1cc(NC(=N)N)cc(C)c1-c1ccc(-c2c(C)cc(NC(=N)N)cc2C)o1.Cl.Cl` [Compound 5f, 2,5-Bis(4-guanidino-2,6-dimethylphenyl)furan dihydrochloride], in the data set on poly dA•dT, the “DNA Affinities ΔTm (AT)” value stood at 2.7. Besides, the “DNA Affinities ΔTm (oligo)” value in the data set on d(CGCGAATTCGCG)2 is given as 1.4.
For `Cl.Cl.N=C(Nc1ccc(-c2ccc(-c3ccc(NC(=N)c4ccccc4)cc3)o2)cc1)c1ccccc1` [Compound 6b, 2,5-Bis[4-(benzimidoylamino)phenyl]furan Dihydrochloride], in the data set with Candida albicans (setting [1]), the MFC stood at 50 µg/mL and the MIC was found to be 25 µg/mL. Further, in the data set with poly dA•dT, the “DNA Affinities ΔTm (AT)” value was found to be 28.6. Besides, in the data set with d(CGCGAATTCGCG)2, the “DNA Affinities ΔTm (oligo)” value is on record as 15.0.
`Cl.Cl.N=C(N)Nc1ccc(-c2ccc(-c3ccc(NC(=N)N)cc3Cl)o2)c(Cl)c1` [Compound 5d, 2,5-Bis(2-chloro-4-guanidinophenyl)furan dihydrochloride]: the melting point was 300 to 304 °C (dec.). In the data set with Aspergillus fumigatus, the MFC amounted to 100 µg/mL and the MIC came to 100 µg/mL. For the same compound, in the data set on Candida albicans (setting [1]), the MFC turned out to be 100 µg/mL and the MIC amounted to 10 µg/mL. Moreover, in the data set on M. tuberculosis H37Rv (setting [2]), the minimal inhibitory concentration (MIC) was determined as 4 µg/mL. Moreover, the “DNA Affinities ΔTm (AT)” value with poly dA•dT came to 26.1. For the same compound, the “DNA Affinities ΔTm (oligo)” value with d(CGCGAATTCGCG)2 was 4.7.
Regarding `Cc1cc(NC(=N)c2ccccc2)ccc1-c1ccc(-c2ccc(NC(=N)c3ccccc3)cc2C)o1` [Compound 6g, 2,5-Bis[4-(benzimidoyl)amino-2-methylphenyl]furan], in the data set on Candida albicans (setting [1]), the MFC was determined as 6.25 µg/mL (≈ 12.9 µM) and the minimum inhibitory concentration (MIC) worked out at 3.12 µg/mL (≈ 6.44 µM). In the data set with poly dA•dT, the “DNA Affinities ΔTm (AT)” value is on record as 24.9. Also, the “DNA Affinities ΔTm (oligo)” value in the data set on d(CGCGAATTCGCG)2 is on record as 7.8.
On to `N=C(Nc1ccc(-c2ccc(-c3ccc(NC(=N)c4ccccc4)cc3)s2)cc1)c1ccccc1` (hydrate or solvate) [DB 653, 2,5-Bis[4-(benzimidoyl)aminophenyl]thiophene], for which the melting point is 284 to 286 °C (dec.).
In the case of `COc1cc(N=Nc2ccccn2)ccc1-c1ccc(-c2ccc(N=Nc3ccccn3)cc2OC)o1` (as salt: hydrochloride) [Compound 6k, 2,5-Bis[2-methoxy-4-(2-pyridylimino)aminophenyl]furan], the melting point fell in the range of 196 to 197 °C.
On to `Cc1cc(NC(=N)N)ccc1-c1ccc(-c2ccc(NC(=N)N)cc2C)o1.Cl.Cl` [Compound 5b, 2,5-Bis(4-guanidino-2-methylphenyl)furan dihydrochloride], for which the melting point is 265 to 271 °C (dec.). Also, in the data set on Aspergillus fumigatus, the minimal fungicidal concentration (MFC) stood at 33.4 µg/mL and the MIC is 33.4 µg/mL. Also, the “activity against C. albicans, in words” value in the data set with Candida albicans is given as “fungicidal”. Moreover, in the data set with Candida albicans (setting [1]), the MFC is 2.08 µg/mL and the MIC fell in the range of 1 to 3 µg/mL. Further, the MIC in the data set with M. tuberculosis H37Rv (setting [2]) was 1 to 3 µg/mL. The “DNA Affinities ΔTm (AT)” value in the data set on poly dA•dT is reported as 17.8. In the data set on d(CGCGAATTCGCG)2, the “DNA Affinities ΔTm (oligo)” value is given as 6.9.
For the compound `Br.Br.CC(=N)Nc1ccc(-c2ccc(-c3ccc(NC(C)=N)cc3C)o2)c(C)c1` [Compound 6f, 2,5-Bis [4-(acetimidoyl)amino-2-methylphenyl]furan Dihydrobromide], the melting point was 282.5 to 284 °C (dec.). Moreover, in the data set with Aspergillus fumigatus, the MIC is greater than 100 µg/mL. In addition, the minimal inhibitory concentration (MIC) in the data set with Candida albicans (setting [1]) was greater than 100 µg/mL. In the data set on M. tuberculosis H37Rv, the inhibition at 6.25 µg/mL worked out at 18%. Also, the “DNA Affinities ΔTm (AT)” value in the data set with poly dA•dT is given as 14.5. In addition, the “DNA Affinities ΔTm (oligo)” value with d(CGCGAATTCGCG)2 is given as 2.4.
For the compound `COc1cc(NC(=N)N)ccc1-c1ccc(-c2ccc(NC(=N)N)cc2OC)o1.Cl.Cl` [Compound 5c, 2,5-Bis(4-guanidino-2-methoxyphenyl)furan dihydrochloride], the MFC in the data set on Aspergillus fumigatus and in the data set on Candida albicans (setting [1]) was 100 µg/mL each time. In addition, the MIC amounted to 100 µg/mL in the data set on Aspergillus fumigatus, 10 µg/mL with Candida albicans (setting [1]) and 16 µg/mL with M. tuberculosis H37Rv (setting [2]). The “DNA Affinities ΔTm (AT)” value with poly dA•dT came out at 15.2. In the data set on d(CGCGAATTCGCG)2, the “DNA Affinities ΔTm (oligo)” value is reported as 2.8.
In the case of `N=C(N)Nc1ccc(-c2ccc(-c3ccc(NC(=N)N)cc3)s2)cc1` [DB 686], in the data set with Candida albicans (setting [1]), the “C. albicans MFC” value was 4.17 µg/mL and the “C. albicans MIC” value stood at 4.17 µg/mL. Also, the “MTb MIC” value in the data set on M. tuberculosis H37Rv (H37Rv, lowest concentration effecting ≧90% reduction of fluorescence) was less than 1 µg/mL.
`c1ccc(N=Nc2ccc(-c3ccc(-c4ccc(N=Nc5ccccn5)cc4)o3)cc2)nc1` (as salt: hydrochloride) (hydrate or solvate) [Compound 6a, 2,5-Bis[4-(2-pyridylimino)aminophenyl]furan] registered a melting point of 221 to 223 °C.
On the same count and under the same terms, the figure for `Clc1cc(N=Nc2ccccn2)ccc1-c1ccc(-c2ccc(N=Nc3ccccn3)cc2Cl)o1` (as salt: hydrochloride) [Compound 6l, 2,5-Bis[2-chloro-4-(2-pyridylimino)aminophenyl]furan] is 189 to 190 °C.
Take `Cl.Cl.N=C(N)Nc1ccc(-c2ccc(-c3ccc(NC(=N)N)cc3)o2)cc1` [Compound 5a, 2,5-Bis(4-guanidinophenyl)furan dihydrochloride]: in the data set on Aspergillus fumigatus, the MFC was greater than 100 µg/mL and the MIC was 100 µg/mL. Besides, the “activity against C. albicans, in words” value in the data set on Candida albicans was “fungicidal”. Besides, in the data set on Candida albicans (setting [1]), the minimum fungicidal concentration (MFC) was determined as 25 µg/mL. The “DNA Affinities ΔTm (AT)” value with poly dA•dT is listed as 21.6. Moreover, the “DNA Affinities ΔTm (oligo)” value in the data set on d(CGCGAATTCGCG)2 stood at 10.8.
With `Cc1ccc(N=Nc2ccc(-c3ccc(-c4ccc(N=Nc5ccc(C)cn5)cc4C)o3)c(C)c2)nc1` (as salt: hydrochloride) [Compound 6j, 2,5-Bis[2-methyl-4-(5-methyl-2-pyridylimino)aminophenyl]furan], the melting point was 156 to 158 °C.
As for `N=C(Nc1ccc(-c2ccc(-c3ccc(NC(=N)c4ccccc4)cc3)s2)cc1)c1ccccc1` [DB 653, 2,5-Bis[4-(benzimidoyl)aminophenyl]thiophene], the MIC with Aspergillus fumigatus and with Candida albicans (setting [1]) was greater than 100 µg/mL in each case. Further, the “DNA Affinities ΔTm (AT)” value in the data set with poly dA•dT amounted to 20.2. Further, the “DNA Affinities ΔTm (oligo)” value with d(CGCGAATTCGCG)2 came out at 12.8.
